Several values for one entry are separate records, joined by “and”; a condition that tells them apart may be missing. Equal values may be shown once. Numbers after ± are expanded uncertainties.
Conditions: Liquid

ClCc1nc2ccccc2o1 [2-(chloromethyl)-1,3-benzoxazole]
Ebulliometric method (Recirculating still)
Conditions | vapor or sublimation pressure
347.65 K | 0.08 ± 0.06 kPa
357.1 K | 0.16 ± 0.06 kPa
368.45 K | 0.32 ± 0.07 kPa
375.15 K | 0.59 ± 0.08 kPa
378.2 K | 0.69 ± 0.09 kPa
383.2 K | 0.96 ± 0.12 kPa
388.15 K | 1.39 ± 0.12 kPa
393.5 K | 1.76 ± 0.44 kPa
393.85 K | 1.87 ± 0.44 kPa
395.6 K | 2.03 ± 0.2 kPa
400.3 K | 2.72 ± 0.19 kPa
405.25 K | 3.28 ± 0.25 kPa
408.35 K | 4.19 ± 0.34 kPa
411.9 K | 4.88 ± 0.34 kPa
417.3 K | 6.32 ± 1.7 kPa
418.1 K | 7.29 ± 1.4 kPa
418.85 K | 7.91 ± 1.2 kPa
418.9 K | 7.92 ± 0.73 kPa
422.05 K | 9.41 ± 0.66 kPa
423.2 K | 9.92 ± 0.73 kPa and 10.59 ± 0.75 kPa
424.2 K | 10.53 ± 0.9 kPa
424.55 K | 10.8 ± 1.1 kPa

Clc1ccccc1 [chlorobenzene]
Conditions | vapor or sublimation pressure [kPa]
330.5 K | 7.92 ± 0.55
337.4 K | 10.59 ± 0.55

Source: the NIST ThermoML archive (doi:10.1021/je060249h)
